Assay results reported in patent US11472791B2 (Incyte Corporation, priority 2019, dated 2022).

Molecular target: CDK2/Cyclin E1 (Homo sapiens (Human), UniProt P24941)
Experiment: CDK2/Cyclin E1 HTRF enzyme activity assay
Type: biochemical
Details: 1 mM ATP
Protocol: Assays are conducted in white 384-well polystyrene plates in a final reaction volume of 8 μL. […] HTRF signals are read after 1 hour at room temperature on a PHERAstar FS plate reader (BMG Labtech). Data is analyzed with IDBS XLFit and GraphPad Prism 5.0 software using a three or four parameter dose response curve to determine IC50 for each compound.

Compound | IC50
COC(=O)N1CC(NCc2ccc(-n3cc(-c4nc(NC5CCN(S(C)(=O)=O)CC5)ncc4C#N)cn3)c(Cl)c2)C1 [Example 172, Methyl 3-((3-chloro-4-(4-(5-cyano-2-((1-(methylsulfonyl)piperidin-4-yl)amino)pyrimidin-4-yl)-1H-pyrazol-1-yl)benzyl)amino)azetidine-1-carboxylate] | < 50 nM
CS(=O)(=O)N1CCC(Nc2ncc(C#N)c(-c3cnn(-c4ccc(CN[C@H]5CC[C@@](C)(O)CC5)cc4Cl)c3)n2)CC1 [Example 173, 4-(1-(2-Chloro-4-((((1s,4s)-4-hydroxy-4-methylcyclohexyl)amino)methyl)phenyl)-1H-pyrazol-4-yl)-2-((1-(methylsulfonyl)piperidin-4-yl)amino)pyrimidine-5-carbonitrile] | < 50 nM
CS(=O)(=O)N1CCC(Nc2ncc(C#N)c(-c3cnn(-c4ccc(CN[C@H]5CC[C@](C)(O)CC5)cc4Cl)c3)n2)CC1 [Example 174, 4-(1-(2-Chloro-4-((((1r,4r)-4-hydroxy-4-methylcyclohexyl)amino)methyl)phenyl)-1H-pyrazol-4-yl)-2-((1-(methylsulfonyl)piperidin-4-yl)amino)pyrimidine-5-carbonitrile] | < 50 nM
CCS(=O)(=O)N1CCC(Nc2ncc(C#N)c(-c3cnn(-c4ccc(CN[C@H]5CC[C@@](C)(O)CC5)cc4Cl)c3)n2)CC1 [Example 175, 4-(1-(2-Chloro-4-((((1s,4s)-4-hydroxy-4-methylcyclohexyl)amino)methyl)phenyl)-1H-pyrazol-4-yl)-2-((1-(ethylsulfonyl)piperidin-4-yl)amino)pyrimidine-5-carbonitrile] | < 50 nM
CCS(=O)(=O)N1CCC(Nc2ncc(C#N)c(-c3cnn(-c4ccc(CN[C@H]5CC[C@](C)(O)CC5)cc4Cl)c3)n2)CC1 [Example 176, 4-(1-(2-Chloro-4-((((1r,4r)-4-hydroxy-4-methylcyclohexyl)amino)methyl)phenyl)-1H-pyrazol-4-yl)-2-((1-(ethylsulfonyl)piperidin-4-yl)amino)pyrimidine-5-carbonitrile] | < 50 nM
CS(=O)(=O)N1CCC(Nc2ncc(C#N)c(-c3cnn(-c4ccc(CN[C@H]5CC[C@](O)(C(F)(F)F)CC5)cc4Cl)c3)n2)CC1 [Example 177, 4-(1-(2-Chloro-4-((((1s,4s)-4-hydroxy-4-(trifluoromethyl)cyclohexyl)amino)methyl)phenyl)-1H-pyrazol-4-yl)-2-((1-(methylsulfonyl)piperidin-4-yl)amino)pyrimidine-5-carbonitrile] | < 50 nM
CS(=O)(=O)N1CCC(Nc2ncc(C#N)c(-c3cnn(-c4ccc(CN[C@@H]5CCCC[C@H]5O)cc4Cl)c3)n2)CC1 [Example 178, 4-(1-(2-Chloro-4-((((1R,2R)-2-hydroxycyclohexyl)amino)methyl)phenyl)-1H-pyrazol-4-yl)-2-((1-(methylsulfonyl)piperidin-4-yl)amino)pyrimidine-5-carbonitrile] | < 50 nM
CS(=O)(=O)N1CCC(Nc2ncc(C#N)c(-c3cnn(-c4ccc(CN[C@@H]5CCCC[C@@H]5O)cc4Cl)c3)n2)CC1 [Example 179, 4-(1-(2-Chloro-4-((((1R,2S)-2-hydroxycyclohexyl)amino)methyl)phenyl)-1H-pyrazol-4-yl)-2((1-(methylsulfonyl)piperidin-4-yl)amino)pyrimidine-5-carbonitrile] | < 50 nM
CS(=O)(=O)N1CCC(Nc2ncc(C#N)c(-c3cnn(-c4ccc(CN[C@H]5CCC[C@@H](O)C5)cc4Cl)c3)n2)CC1 [Example 180, 4-(1-(2-Chloro-4-((((1S,3R)-3-hydroxycyclohexyl)amino)methyl)phenyl)-1H-pyrazol-4-yl)-2((1-(methylsulfonyl)piperidin-4-yl)amino)pyrimidine-5-carbonitrile] | < 50 nM
CS(=O)(=O)N1CCC(Nc2ncc(C#N)c(-c3cnn(-c4ccc(CN[C@H]5CCC[C@H](O)C5)cc4Cl)c3)n2)CC1 [Example 181, 4-(1-(2-Chloro-4-((((1S,3S)-3-hydroxycyclohexyl)amino)methyl)phenyl)-1H-pyrazol-4-yl)-2((1-(methylsulfonyl)piperidin-4-yl)amino)pyrimidine-5-carbonitrile] | < 50 nM
CS(=O)(=O)N1CCC(Nc2ncc(C#N)c(-c3cnn(-c4ccc(CN[C@H]5CC[C@H](O)CC5)cc4Cl)c3)n2)CC1 [Example 182, 4-(1-(2-Chloro-4-((((1r,4r)-4-hydroxycyclohexyl)amino)methyl)phenyl)-1H-pyrazol-4-yl)-2-((1-(methylsulfonyl)piperidin-4-yl)amino)pyrimidine-5-carbonitrile] | < 50 nM
CS(=O)(=O)N1CCC(Nc2ncc(C#N)c(-c3cnn(-c4ccc(CNC5CCC(C#N)CC5)cc4Cl)c3)n2)CC1 (stereo not drawn) [Example 183, 4-(1-(2-Chloro-4-(((4-cyanocyclohexyl)amino)methyl)phenyl)-1H-pyrazol-4-yl)-2-((1-(methylsulfonyl)piperidin-4-yl)amino)pyrimidine-5-carbonitrile] | < 50 nM
CN(C)C1CCCCC1NCc1ccc(-n2cc(-c3nc(NC4CCN(S(C)(=O)=O)CC4)ncc3C#N)cn2)c(Cl)c1 (stereo not drawn) [Example 184, 4-(1-(2-Chloro-4-(((2-(dimethylamino)cyclohexyl)amino)methyl)phenyl)-1H-pyrazol-4-yl)-2-((1-(methylsulfonyl)piperidin-4-yl)amino)pyrimidine-5-carbonitrile] | < 50 nM
CS(=O)(=O)N1CCC(Nc2ncc(C#N)c(-c3cnn(-c4ccc(CN[C@H]5CC[C@@H](S(C)(=O)=O)CC5)cc4Cl)c3)n2)CC1 [Example 185, 4-(1-(2-Chloro-4-((((cis)-4-(methylsulfonyl)cyclohexyl)amino)methyl)phenyl)-1H-pyrazol-4-yl)-2-((1-(methylsulfonyl)piperidin-4-yl)amino)pyrimidine-5-carbonitrile] | < 50 nM
CS(=O)(=O)N1CCC(Nc2ncc(C#N)c(-c3cnn(-c4ccc(CN[C@@H]5CCC[C@H]5O)cc4Cl)c3)n2)CC1 [Example 186, 4-(1-(2-Chloro-4-((((1R,2R)-2-hydroxycyclopentyl)amino)methyl)phenyl)-1H-pyrazol-4-yl)-2-((1-(methylsulfonyl)piperidin-4-yl)amino)pyrimidine-5-carbonitrile] | < 50 nM
CS(=O)(=O)N1CCC(Nc2ncc(C#N)c(-c3cnn(-c4ccc(CN[C@H]5CCC[C@@H]5O)cc4Cl)c3)n2)CC1 [Example 187, 4-(1-(2-Chloro-4-((((1S,2S)-2-hydroxycyclopentyl)amino)methyl)phenyl)-1H-pyrazol-4-yl)-2-((1-(methylsulfonyl)piperidin-4-yl)amino)pyrimidine-5-carbonitrile] | < 50 nM
CS(=O)(=O)N1CCC(Nc2ncc(C#N)c(-c3cnn(-c4ccc(CN[C@H]5CC[C@@H](O)C5)cc4Cl)c3)n2)CC1 [Example 188, 4-(1-(2-Chloro-4-((((1S,3R)-3-hydroxycyclopentyl)amino)methyl)phenyl)-1H-pyrazol-4-yl)-2-((1-(methylsulfonyl)piperidin-4-yl)amino)pyrimidine-5-carbonitrile] | < 50 nM
CS(=O)(=O)N1CCC(Nc2ncc(C#N)c(-c3cnn(-c4ccc(CN[C@@H]5CC[C@@H](O)C5)cc4Cl)c3)n2)CC1 [Example 189, 4-(1-(2-Chloro-4-((((1R,3R)-3-hydroxycyclopentyl)amino)methyl)phenyl)-1H-pyrazol-4-yl)-2-((1-(methylsulfonyl)piperidin-4-yl)amino)pyrimidine-5-carbonitrile] | < 50 nM
CS(=O)(=O)N1CCC(Nc2ncc(C#N)c(-c3cnn(-c4ccc(CN[C@H]5C[C@@](C)(O)C5)cc4Cl)c3)n2)CC1 [Example 190, 4-(1-(2-Chloro-4-((((1s,3s)-3-hydroxy-3-methylcyclobutyl)amino)methyl)phenyl)-1H-pyrazol-4-yl)-2-((1-(methylsulfonyl)piperidin-4-yl)amino)pyrimidine-5-carbonitrile] | < 50 nM
CS(=O)(=O)N1CCC(Nc2ncc(C#N)c(-c3cnn(-c4ccc(CN[C@H]5C[C@](C)(O)C5)cc4Cl)c3)n2)CC1 [Example 191, 4-(1-(2-Chloro-4-((((1r,3r)-3-hydroxy-3-methylcyclobutyl)amino)methyl)phenyl)-1H-pyrazol-4-yl)-2-((1-(methylsulfonyl)piperidin-4-yl)amino)pyrimidine-5-carbonitrile] | < 50 nM
CCS(=O)(=O)N1CCC(Nc2ncc(C#N)c(-c3cnn(-c4ccc(CN[C@H]5C[C@@](C)(O)C5)cc4Cl)c3)n2)CC1 [Example 192, 4-(1-(2-Chloro-4-((((1s,3s)-3-hydroxy-3-methylcyclobutyl)amino)methyl)phenyl)-1H-pyrazol-4-yl)-2-((1-(ethylsulfonyl)piperidin-4-yl)amino)pyrimidine-5-carbonitrile] | < 50 nM
CCS(=O)(=O)N1CCC(Nc2ncc(C#N)c(-c3cnn(-c4ccc(CN[C@H]5C[C@](C)(O)C5)cc4Cl)c3)n2)CC1 [Example 193, 4-(1-(2-Chloro-4-((((1r,3r)-3-hydroxy-3-methylcyclobutyl)amino)methyl)phenyl)-1H-pyrazol-4-yl)-2-((1-(ethylsulfonyl)piperidin-4-yl)amino)pyrimidine-5-carbonitrile] | < 50 nM
CCn1cc(CNCc2ccc(-n3cc(-c4nc(NC5CCN(S(C)(=O)=O)CC5)ncc4C#N)cn3)c(Cl)c2)cn1 [Example 194, 4-(1-(2-Chloro-4-((((1-ethyl-1H-pyrazol-4-yl)methyl)amino)methyl)phenyl)-1H-pyrazol-4-yl)-2-((1-(methylsulfonyl)piperidin-4-yl)amino)pyrimidine-5-carbonitrile] | < 50 nM
CS(=O)(=O)N1CCC(Nc2ncc(C#N)c(-c3cnn(-c4ccc(CN[C@@H]5CCCOC5)cc4Cl)c3)n2)CC1 [Example 195, (R)-4-(1-(2-Chloro-4-(((tetrahydro-2H-pyran-3-yl)amino)methyl)phenyl)-1H-pyrazol-4-yl)-2-((1-(methylsulfonyl)piperidin-4-yl)amino)pyrimidine-5-carbonitrile] | < 50 nM
